According to ChEMBL document CHEMBL1201862, “PubChem BioAssay data set” (2004):
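Where inhibition never reached the appropriate level, the endpoint shown equals the highest concentration tested. Otherwise, values were interpolated linearly from a five-concentration, 48-hour dose response in 96-well plates. Here, GI50 denotes the concentration required for 50% inhibition of growth.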 The source made the active and inactive calls. No stated cut-off is given here; in the data, active = GI50 up to about 1.1 µM and inactive = higher.

Key:
Assay in all cases: inhibition of tumour cell growth, NCI panel, 48 h
DMS-114 = tested on: DMS-114
DMS-273 = tested on: DMS-273
KM-20L2 = tested on: KM-20L2
RXF 631 = tested on: RXF 631
DLD-1 = tested on: DLD-1
XF498 = tested on: XF498
M19-MEL = tested on: M19-MEL
SNB-78 = tested on: SNB-78
HOP-18 = tested on: HOP-18

SMILES	GI50 (DMS-114)	GI50 (DMS-273)	GI50 (KM-20L2)	GI50 (RXF 631)	GI50 (DLD-1)	GI50 (XF498)	GI50 (M19-MEL)	GI50 (SNB-78)	GI50 (HOP-18)
Cc1cccc(NC(=O)/C=C/c2ccc(N(CCC#N)CCC#N)cc2C)c1	49.9 µM (inactive)	> 100 µM (inactive)	> 100 µM (inactive)	> 100 µM (inactive)	> 100 µM (inactive)	> 100 µM (inactive)	> 100 µM (inactive)	–	–
CCOC(=O)CSc1cc[nH]c(=O)n1	> 100 µM (inactive)	> 100 µM (inactive)	> 100 µM (inactive)	–	–	75 µM (inactive)	> 100 µM (inactive)	> 100 µM (inactive)	–
CCCCNC(=O)OCC(COc1ccccc1OC)OC(=O)NCCCC (centres undefined)	78.7 µM (inactive)	> 100 µM (inactive)	> 100 µM (inactive)	> 100 µM (inactive)	> 100 µM (inactive)	> 100 µM (inactive)	> 100 µM (inactive)	> 100 µM (inactive)	39.5 µM (inactive)
COC(=O)N(C(=O)OC)C(C(=O)O)C(C)C (centres undefined)	> 100 µM (inactive)	> 100 µM (inactive)	> 100 µM (inactive)	–	> 100 µM (inactive)	–	> 100 µM (inactive)	> 100 µM (inactive)	> 100 µM (inactive)
CCOC(=O)NN1C(=O)C(=P(c2ccccc2)(c2ccccc2)c2ccccc2)C(C(=O)OC)=C1C	> 100 µM (inactive)	> 100 µM (inactive)	> 100 µM (inactive)	–	> 100 µM (inactive)	> 100 µM (inactive)	> 100 µM (inactive)	> 100 µM (inactive)	> 100 µM (inactive)
COc1ccc(C2=Nc3ccccc3SC(C)C2)cc1OC (centres undefined)	19.4 µM (inactive)	16.7 µM (inactive)	18.8 µM (inactive)	42.2 µM (inactive)	–	18.2 µM (inactive)	–	27.4 µM (inactive)	> 10 µM (inactive)
CCCCCCCCCCCc1noc2c1C(=O)C(O)CC2 (centres undefined)	–	16.8 µM (inactive)	17.2 µM (inactive)	17.6 µM (inactive)	–	13.6 µM (inactive)	–	24.4 µM (inactive)	–
CCCCN(CCCC)C(=O)C(=O)CC(=O)/C=C/c1ccccc1	> 100 µM (inactive)	> 100 µM (inactive)	> 100 µM (inactive)	> 100 µM (inactive)	> 100 µM (inactive)	–	> 100 µM (inactive)	> 100 µM (inactive)	> 100 µM (inactive)
Cn1cc(-c2ccc3c4ccccc4n(C)c3c2)c2ccccc21	> 100 µM (inactive)	–	> 100 µM (inactive)	–	–	–	> 100 µM (inactive)	> 100 µM (inactive)	> 100 µM (inactive)
CCCCCCCCCCCCCCCC(=O)OCC1OC(OC)C2NP(=O)(N(CCCl)CCCl)OC1C2O (centres undefined)	1.54 µM (inactive)	0.152 µM (active)	15.8 µM (inactive)	6.89 µM (inactive)	2.7 µM (inactive)	2.31 µM (inactive)	15.6 µM (inactive)	3.3 µM (inactive)	8.53 µM (inactive)
CCOc1ccc(NC(=O)/C(=C\c2ccc(C)cc2)C(C)=O)cc1	> 100 µM (inactive)	> 100 µM (inactive)	> 100 µM (inactive)	> 100 µM (inactive)	> 100 µM (inactive)	–	> 100 µM (inactive)	> 100 µM (inactive)	> 100 µM (inactive)
CS(=O)(=O)NNS(=O)(=O)c1cccc([N+](=O)[O-])c1	> 100 µM (inactive)	> 100 µM (inactive)	> 100 µM (inactive)	> 100 µM (inactive)	> 100 µM (inactive)	> 100 µM (inactive)	> 100 µM (inactive)	–	–
COc1ccc2c(C3(O)CCNCC3)c[nH]c2c1	–	> 100 µM (inactive)	> 100 µM (inactive)	> 100 µM (inactive)	> 100 µM (inactive)	–	> 100 µM (inactive)	–	> 100 µM (inactive)
CC1(C)CCc2cc3c(cc2O1)OCCC3=O	70 µM (inactive)	–	> 100 µM (inactive)	> 100 µM (inactive)	> 100 µM (inactive)	> 100 µM (inactive)	> 100 µM (inactive)	–	> 100 µM (inactive)
COc1ccccc1C(=O)Nc1ccc(Cl)c(C(=O)OC(C)C)c1	19 µM (inactive)	35.3 µM (inactive)	28.6 µM (inactive)	41.1 µM (inactive)	–	21.9 µM (inactive)	30.8 µM (inactive)	42 µM (inactive)	> 100 µM (inactive)
CC1(O)C(C)(O)C(C)(O)C1(C)O (centres undefined)	> 100 µM (inactive)	> 100 µM (inactive)	> 100 µM (inactive)	–	> 100 µM (inactive)	> 100 µM (inactive)	> 100 µM (inactive)	> 100 µM (inactive)	> 100 µM (inactive)
NC(CCc1ncc(C(=O)O)s1)C(=O)O (centres undefined)	> 100 µM (inactive)	–	–	> 100 µM (inactive)	> 100 µM (inactive)	–	> 100 µM (inactive)	> 100 µM (inactive)	> 100 µM (inactive)
NCc1cccc(O)c1O	> 100 µM (inactive)	> 100 µM (inactive)	> 100 µM (inactive)	> 100 µM (inactive)	90.4 µM (inactive)	> 100 µM (inactive)	48.9 µM (inactive)	> 100 µM (inactive)	> 100 µM (inactive)
O=c1c2cccnc2ncn1CCN1CCCC1	> 100 µM (inactive)	> 100 µM (inactive)	> 100 µM (inactive)	–	> 100 µM (inactive)	> 100 µM (inactive)	> 100 µM (inactive)	> 100 µM (inactive)	–
O=C1Nc2ccc(Br)cc2/C1=N/Nc1ccc([N+](=O)[O-])cc1[N+](=O)[O-]	–	–	3.14 µM (inactive)	–	4.58 µM (inactive)	–	3.54 µM (inactive)	4.51 µM (inactive)	1.12 µM (inactive)
O=C(c1ccccc1)c1c(CC(O)c2ccccn2)n(C(=O)c2ccccc2)c2ccccc12 (centres undefined)	22 µM (inactive)	23.6 µM (inactive)	18.5 µM (inactive)	–	26.9 µM (inactive)	20.4 µM (inactive)	20.8 µM (inactive)	–	–
O=C(/C(=N/Nc1ccccc1)c1ccc([N+](=O)[O-])cc1)c1ccc([N+](=O)[O-])cc1	> 100 µM (inactive)	> 100 µM (inactive)	> 100 µM (inactive)	–	> 100 µM (inactive)	> 100 µM (inactive)	> 100 µM (inactive)	> 100 µM (inactive)	> 100 µM (inactive)
COc1ccc2c(=O)c(C)c(-c3ccccc3)oc2c1CN(C)C [DIMEFLINE]	–	> 100 µM (inactive)	97.7 µM (inactive)	–	> 100 µM (inactive)	69.3 µM (inactive)	–	> 100 µM (inactive)	> 100 µM (inactive)
C=C1C[C@]23C[C@@]1(O)CC[C@H]2[C@@]12C=C[C@H](O)[C@@](C)(C(=O)O1)[C@H]2[C@@H]3C(=O)O [GIBBERELLIN A3]	> 100 µM (inactive)	> 100 µM (inactive)	> 100 µM (inactive)	–	> 100 µM (inactive)	> 100 µM (inactive)	> 100 µM (inactive)	> 100 µM (inactive)	–
O=c1c2cc(Br)ccc2nc(CNc2ccccc2)n1-c1ccccc1	11.5 µM (inactive)	25.8 µM (inactive)	59 µM (inactive)	–	9.02 µM (inactive)	15.7 µM (inactive)	13.9 µM (inactive)	21.1 µM (inactive)	36.7 µM (inactive)
C/C(CC(=O)Nc1ccc(C)c(C)c1)=N\N(c1ccccc1)c1ccccc1	18.3 µM (inactive)	17.6 µM (inactive)	13.3 µM (inactive)	–	55.7 µM (inactive)	> 100 µM (inactive)	–	> 100 µM (inactive)	> 100 µM (inactive)
